Blank lines part the entries; values can stand above or below the compound they belong to.
Legend:
[1] = target: VCB / Brd4^BD2 ternary complex (Homo sapiens, UniProt O60885+P40337); test: ITC ternary titration, VCB into Brd4^BD2–PROTAC complex; assay type: binding; conditions: for α: cooperativity, ratio between binary and ternary Kd; for α / ΔpKd ± uncertainty: Brd4^BD2; for cooperativity (α) Brd4–BD2: ternary complex formation with VCB and Brd4^BD2, as tabulated in Table 2; for ΔpKd ± uncertainty: ternary vs binary
Brd4^BD2 = Brd4^BD2 (Homo sapiens, UniProt O60885); test: ITC binary titration, Brd4^BD2 into PROTAC; assay type: binding; conditions: Brd4^BD2 in syringe, PROTAC in cell
[2] = target: VHL-EloC-EloB protein (VCB) (Homo sapiens, UniProt P40337); test: ITC binary titration, VCB into PROTAC; assay type: binding; conditions: VCB in syringe, PROTAC in cell
[3] = test system: BET proteins Brd2, Brd3, Brd4; test: BET degradation profile in HeLa cells; assay type: cell-based
Brd2BD1 = Brd2BD1 (Homo sapiens, UniProt P25440); test: ITC binary titration, Brd2BD1 into 10; assay type: binding; conditions: Brd2BD1 in syringe
Sequence of Brd2BD1 (P25440 74-180 limits assumed): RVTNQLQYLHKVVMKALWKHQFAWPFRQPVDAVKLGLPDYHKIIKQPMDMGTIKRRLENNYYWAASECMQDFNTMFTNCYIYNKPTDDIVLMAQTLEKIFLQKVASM
Excerpt: (§1) Bromodomain and VCB complex constructs and protein preparation were described in a previous publication.[5] Wild-type version of human proteins VHL (UniProt accession number P40337), ElonginC (Q15369), ElonginB (Q15370), and the bromodomains of Brd2 (P25440), Brd3 (Q15059), and Brd4 (O60885) were used for all protein expression. In brief, the His6-tagged constructs were transformed into E. coli BL21(DE3) and induced with IPTG to produce the desired proteins. […] After cleaving the His-tag by TEV protease, a second Ni affinity column purification was performed to obtain tag-free protein in the flow-through. VCB was then additionally purified by anion exchange using MonoQ (GE Healthcare). For all proteins, purity was further polished by gel filtration chromatography.
(§2) Titrations were performed on an ITC200 microcalorimeter (GE Healthcare) as previously reported.[5] The titrations were in ITC buffer (20 mM Bis-Tris propane, 150 mM NaCl, 1 mM tris(2-carboxyethyl)phosphine (TCEP), pH 7.4), supplemented with either 0.2% or 3% DMSO and consisted of 19 injections of 2 μL of protein solution at a rate of 0.5 μL/s at 120 s time intervals. An initial injection of protein (0.4 μL) was made and discarded during data analysis. All experiments were performed at 25 °C, while stirring at 600 rpm. PROTACs were diluted from a 10 mM DMSO stock solution to 20 μM in ITC buffer with the final concentration of DMSO to be 0.2% for triazolodiazepine-based PROTAC or 3% for tetrahydroquinoline-based PROTAC. Bromodomain protein in the same buffer was titrated into the PROTAC in the cell. At the end of the titration, the excess of solution was removed from the cell, the syringe was washed and dried, and VCB complex (168 μM, in the same buffer) was loaded in the syringe and titrated into the complex of PROTAC–bromodomain. The concentration of the complex in the cell (C) after the first titration (16.8 μM) was calculated as follows: [drawing 1] where C0 is the initial concentration of the PROTAC in the cell (20 μM), Vcell is the volume of the sample cell (200.12 μL), and Vinj is the volume of titrant injected during the first titration (38.4 μL). Titrations for the binary complex PROTAC–VCB were performed in the same manner with VCB titrated into 16.8 μM PROTAC in the cell. […] The data were fitted to a single-binding-site model to obtain the stoichiometry n, the dissociation constant Kd, and the enthalpy of binding ΔH using the Microcal LLC ITC200 Origin software provided by the manufacturer.
(§3) Table S1. ITC results for the formation of binary and ternary complexes between 10, BET Bromodomain and VCB
(§4) Protein in Species in cell Kd (nM) ΔG (kcal × ΔH (kcal × -TΔS (kcal N α ΔpKd
(§5) Syringe mol-1) mol-1) × mol-1)
(§6) Titrations were performed at 25°C in duplicate except for VCB into 10, which was performed in quadruplicate.
(§7) Values reported are the mean ± s.e.m.

[4] = target: VCB / Brd4BD1 ternary complex (Homo sapiens, UniProt O60885+P40337); test: ITC ternary titration, VCB into Brd4BD1:10; assay type: binding
Excerpt: as §1, §2, §3, §4, §5, §6, §7

Brd2BD2 = Brd2BD2 (Homo sapiens, UniProt P25440); test: ITC binary titration, Brd2BD2 into 10; assay type: binding; conditions: Brd2BD2 in syringe
Sequence of Brd2BD2 (P25440 344-453 limits assumed): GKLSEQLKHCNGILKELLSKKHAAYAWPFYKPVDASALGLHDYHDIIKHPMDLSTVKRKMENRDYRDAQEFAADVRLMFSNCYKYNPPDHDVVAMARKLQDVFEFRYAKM
Excerpt: as §1, §2, §3, §4, §5, §6, §7

Brd4BD1 = Brd4BD1 (Homo sapiens, UniProt O60885); test: ITC binary titration, Brd4BD1 into 10; assay type: binding; conditions: Brd4BD1 in syringe
Excerpt: as §1, §2, §3, §4, §5, §6, §7

[5] = target: VCB / Brd3BD1 ternary complex (Homo sapiens, UniProt P40337+Q15059); test: ITC ternary titration, VCB into Brd3BD1:10; assay type: binding
Excerpt: as §1, §2, §3, §4, §5, §6, §7

[6] = target: VCB / Brd3BD2 ternary complex (Homo sapiens, UniProt P40337+Q15059); test: ITC ternary titration, VCB into Brd3BD2:10; assay type: binding
Excerpt: as §1, §2, §3, §4, §5, §6, §7

Brd3BD2 = Brd3BD2 (Homo sapiens, UniProt Q15059); test: ITC binary titration, Brd3BD2 into 10; assay type: binding; conditions: Brd3BD2 in syringe
Sequence of Brd3BD2 (Q15059 306-415 limits assumed): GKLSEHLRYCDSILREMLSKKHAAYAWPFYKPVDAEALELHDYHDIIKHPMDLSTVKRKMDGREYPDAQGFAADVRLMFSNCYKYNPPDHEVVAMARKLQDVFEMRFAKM
Excerpt: as §1, §2, §3, §4, §5, §6, §7

[7] = target: VCB / Brd2BD1 ternary complex (Homo sapiens, UniProt P25440+P40337); test: ITC ternary titration, VCB into Brd2BD1:10; assay type: binding
Excerpt: as §1, §2, §3, §4, §5, §6, §7

Brd3BD1 = Brd3BD1 (Homo sapiens, UniProt Q15059); test: ITC binary titration, Brd3BD1 into 10; assay type: binding; conditions: Brd3BD1 in syringe
Sequence of Brd3BD1 (Q15059 34-140 limits assumed): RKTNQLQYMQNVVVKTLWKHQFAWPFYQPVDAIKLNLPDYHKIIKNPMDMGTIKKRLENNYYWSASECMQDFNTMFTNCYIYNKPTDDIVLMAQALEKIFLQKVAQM
Excerpt: as §1, §2, §3, §4, §5, §6, §7

[8] = target: VCB / Brd2BD2 ternary complex (Homo sapiens, UniProt P25440+P40337); test: ITC ternary titration, VCB into Brd2BD2:10; assay type: binding
Excerpt: as §1, §2, §3, §4, §5, §6, §7

[9] = ternary, VCB in syringe, Brd4^BD2–PROTAC in cell

α [1]: 0.5
cooperativity (α) Brd4–BD2 [1]: 0.46
ΔpKd ± uncertainty [1]: –0.34 ± 0.12
stoichiometry N [1, 9]: 1.44 ± 0.02
ΔG [1, 9]: –9.06 ± 0.09 kcal·mol^–1
ΔH [1, 9]: –6.90 ± 0.11 kcal·mol^–1
–TΔS [1, 9]: –2.16 ± 0.14 kcal·mol^–1
stoichiometry N (Brd4^BD2): 1.15 ± 0.01
ΔG (Brd4^BD2): –11.5 ± 0.3 kcal·mol^–1
ΔH (Brd4^BD2): –9.74 ± 0.10 kcal·mol^–1
–TΔS (Brd4^BD2): –1.73 ± 0.30 kcal·mol^–1
stoichiometry N [2]: 0.96 ± 0.01
ΔG [2]: –9.52 ± 0.13 kcal·mol^–1
ΔH [2]: –6.18 ± 0.12 kcal·mol^–1
–TΔS [2]: –3.34 ± 0.18 kcal·mol^–1
SMILES: CC(=O)N1c2ccc(-c3ccc(C(=O)NCCOCCOCCOCC(=O)N[C@H](C(=O)N4C[C@H](O)C[C@H]4C(=O)NCc4ccc(-c5scnc5C)cc4)C(C)(C)C)cc3)cc2[C@H](Nc2ccc(Cl)cc2)C[C@@H]1C [compound 9, (2S,4R)-1-((S)-1-(4-((2S,4R)-1-Acetyl-4-((4-chlorophenyl)amino)-2-methyl-1,2,3,4-tetrahydroquinolin-6-yl)phenyl)-15-(tert-butyl)-1,13-dioxo-5,8,11-trioxa-2,14-diazahexadecan-16-oyl)-4-hydroxy-N-(4-(4-methylthiazol-5-yl)benzyl)pyrrolidine-2-carboxamide]
concentration with increased levels of BET proteins (hook effect) ([3]; 24 h): 1 to 10 µM

-TΔS (Brd2BD1): 1.86 ± 0.02 kcal/mol
N (Brd2BD1): 1.00 ±0.08
ΔG (Brd2BD1): -10.0 ± 0.2 kcal/mol
ΔH (Brd2BD1): -11.9 ± 0.2 kcal/mol
Kd (Brd2BD1; 10 in cell, 25°C): 45 ± 13 nM
α ([4]; cooperativity, Brd4BD1): 0.5
ΔpKd ([4]; ternary vs binary, Brd4BD1): 0.29 ±0.14
Kd ([4]; ternary, VCB in syringe, Brd4BD1:10 in cell, 25°C): 221 ± 65 nM
-TΔS ([4]; ternary, VCB into Brd4BD1:10): -6.63 ± 0.09 kcal/mol
N ([4]; ternary, VCB into Brd4BD1:10): 0.70 ±0.07
ΔG ([4]; ternary, VCB into Brd4BD1:10): -9.11 ± 0.18 kcal/mol
ΔH ([4]; ternary, VCB into Brd4BD1:10): -2.47 ± 0.09 kcal/mol
α [1]: 0.6
cooperativity (α) Brd4–BD2 [1]: 0.59
ΔpKd ± uncertainty [1]: –0.22 ± 0.08
stoichiometry N [1, 9]: 0.87 ± 0.02
-TΔS (Brd2BD2): -1.19 ± 0.07 kcal/mol
N (Brd2BD2): 0.84 ±0.05
ΔG (Brd2BD2): -11.3 ± 0.01 kcal/mol
ΔH (Brd2BD2): -10.1 ± 0.1 kcal/mol
Kd (Brd2BD2; 10 in cell, 25°C): 5 ± 0.1 nM
stoichiometry N (Brd4^BD2): 0.86 ± 0.06
-TΔS (Brd4BD1): 1.6 ± 0.7 kcal/mol
N (Brd4BD1): 0.73 ±0.02
ΔG (Brd4BD1): -10.3 ± 0.4 kcal/mol
ΔH (Brd4BD1): -11.9 ± 0.3 kcal/mol
Kd (Brd4BD1; 10 in cell, 25°C): 39 ± 24 nM
α ([5]; cooperativity, Brd3BD1): 0.7
ΔpKd ([5]; ternary vs binary, Brd3BD1): 0.14 ±0.09
Kd ([5]; ternary, VCB in syringe, Brd3BD1:10 in cell, 25°C): 152 ± 30 nM
-TΔS ([5]; ternary, VCB into Brd3BD1:10): -5.18 ± 0.14 kcal/mol
N ([5]; ternary, VCB into Brd3BD1:10): 1.03 ±0.18
ΔG ([5]; ternary, VCB into Brd3BD1:10): -9.31 ± 0.12 kcal/mol
ΔH ([5]; ternary, VCB into Brd3BD1:10): -4.13 ± 0.02 kcal/mol
stoichiometry N [2]: 0.92 ± 0.15
α ([6]; cooperativity, Brd3BD2): 0.3
ΔpKd ([6]; ternary vs binary, Brd3BD2): 0.58 ±0.14
Kd ([6]; ternary, VCB in syringe, Brd3BD2:10 in cell, 25°C): 434 ± 128 nM
-TΔS ([6]; ternary, VCB into Brd3BD2:10): -1.37 ± 0.54 kcal/mol
N ([6]; ternary, VCB into Brd3BD2:10): 1.03 ±0.15
ΔG ([6]; ternary, VCB into Brd3BD2:10): -8.71 ± 0.18 kcal/mol
ΔH ([6]; ternary, VCB into Brd3BD2:10): -7.33 ± 0.36 kcal/mol
-TΔS (Brd3BD2): 3.0 ± 0.1 kcal/mol
N (Brd3BD2): 1.02 ±0.09
ΔG (Brd3BD2): -10.9 ± 0.3 kcal/mol
ΔH (Brd3BD2): -13.9 ± 0.4 kcal/mol
Kd (Brd3BD2; 10 in cell, 25°C): 11 ± 5 nM
α ([7]; cooperativity, Brd2BD1): 0.3
ΔpKd ([7]; ternary vs binary, Brd2BD1): 0.41 ±0.23
-TΔS ([7]; ternary, VCB into Brd2BD1:10): -4.19 ± 0.92 kcal/mol
N ([7]; ternary, VCB into Brd2BD1:10): 0.99 ±0.08
ΔG ([7]; ternary, VCB into Brd2BD1:10): -8.95 ± 0.31 kcal/mol
ΔH ([7]; ternary, VCB into Brd2BD1:10): -4.76 ± 0.62 kcal/mol
-TΔS (Brd3BD1): 3.2 ± 0.2 kcal/mol
N (Brd3BD1): 0.98 ±0.04
ΔG (Brd3BD1): -10.1 ± 0.1 kcal/mol
ΔH (Brd3BD1): -13.3 ± 0.4 kcal/mol
Kd (Brd3BD1; 10 in cell, 25°C): 39 ± 8 nM
α ([8]; cooperativity, Brd2BD2): 0.3
ΔpKd ([8]; ternary vs binary, Brd2BD2): 0.52 ±0.17
Kd ([8]; ternary, VCB in syringe, Brd2BD2:10 in cell, 25°C): 384 ± 145 nM
-TΔS ([8]; ternary, VCB into Brd2BD2:10): -1.02 ± 0.61 kcal/mol
N ([8]; ternary, VCB into Brd2BD2:10): 0.73 ±0.02
ΔG ([8]; ternary, VCB into Brd2BD2:10): -8.80 ± 0.23 kcal/mol
ΔH ([8]; ternary, VCB into Brd2BD2:10): -7.77 ± 0.37 kcal/mol
SMILES: CC(=O)N1c2ccc(-c3ccc(C(=O)NCCOCCOCCOCCOCC(=O)N[C@H](C(=O)N4C[C@H](O)C[C@H]4C(=O)NCc4ccc(-c5scnc5C)cc4)C(C)(C)C)cc3)cc2[C@H](Nc2ccc(Cl)cc2)C[C@@H]1C [compound 10, (2S,4R)-1-((S)-1-(4-((2S,4R)-1-Acetyl-4-((4-chlorophenyl)amino)-2-methyl-1,2,3,4-tetrahydroquinolin-6-yl)phenyl)-18-(tert-butyl)-1,16-dioxo-5,8,11,14-tetraoxa-2,17-diazanonadecan-19-oyl)-4-hydroxy-N-(4-(4-methylthiazol-5-yl)benzyl)pyrrolidine-2-carboxamide]
window of concentration for selective degradation of BRD3/4 [3]: 30 to 100 nM
concentration with increased levels of BET proteins (hook effect) ([3]; 24 h): 1 to 10 µM
intra-BET degradation selectivity ([3]; 24 h): depletion selectivity for Brd4 and Brd3 over Brd2

— publication PMC5788402, “Impact of Target Warhead and Linkage Vector on Inducing Protein Degradation: Comparison of Bromodomain and Extra-Terminal (BET) Degraders Derived from Triazolodiazepine (JQ1) and Tetrahydroquinoline (I-BET726) BET Inhibitor Scaffolds” (Journal of Medicinal Chemistry, 2017)
